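How tested: cells in 96-well plates exposed to compound for 48 hours at five concentrations. At the TGI there is no net growth.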
Legend:
Experiment in all cases: NCI anticancer screen, dose series, 48 h
[1] = tested on: SF-268 CNS
[2] = tested on: TK-10 renal
[3] = tested on: UACC-257 melanoma
[4] = tested on: OVCAR-8 ovarian
[5] = tested on: HCC-2998 colon
[6] = tested on: MCF7 breast
[7] = tested on: OVCAR-4 ovarian
[8] = tested on: MDA-MB-231 breast
[9] = tested on: HCT-116 colon
[10] = tested on: A549 NSCLC
[11] = tested on: RXF 393 renal
[12] = tested on: SK-OV-3 ovarian
[13] = tested on: T-47D breast
[14] = tested on: OVCAR-3 ovarian
[15] = tested on: KM12 colon
[16] = tested on: HL-60(TB) leukemia
[17] = tested on: NCI/ADR-RES ovarian
[18] = tested on: MALME-3M melanoma
[19] = tested on: PC-3 prostate

With `Cc1ccc(S(=O)(=O)N2CCSCCSCCSCCN(S(=O)(=O)c3ccc(C)cc3)CC2)cc1` the TGI [1] was over 100 µM, the TGI [2] was over 100 µM and the TGI [3] was over 100 µM. It also gave a TGI [4] of over 100 µM, a TGI [5] of over 100 µM and a TGI [6] of over 100 µM. The TGI [7] was over 100 µM, the TGI [8] was over 100 µM and the TGI [9] was over 100 µM. The TGI [10] was over 100 µM, the TGI [11] was over 100 µM and the TGI [12] was over 100 µM. For the same compound, the TGI [13] was over 100 µM, the TGI [14] was over 100 µM and the TGI [15] was over 100 µM. For the same compound, the TGI [16] was over 100 µM and the TGI [17] was over 100 µM.
`COc1cc([C@@H]2c3cc4c(cc3[C@@H](Nc3ccc(Cl)cc3C(=O)c3ccccc3)[C@H]3COC(=O)[C@H]23)OCO4)cc(OC)c1OC` showed a TGI [1] of over 100 µM, a TGI [2] of over 100 µM and a TGI [3] of over 100 µM. It also gave a TGI [4] of over 100 µM, a TGI [6] of over 100 µM and a TGI [7] of over 100 µM. It also gave a TGI [8] of over 100 µM, a TGI [9] of over 100 µM and a TGI [10] of over 100 µM. The TGI [12] was over 100 µM, the TGI [13] was over 100 µM and the TGI [18] was over 100 µM. For the same compound, the TGI [14] was over 100 µM, the TGI [16] was 1.09 µM and the TGI [17] was over 100 µM.
In the case of `Cc1cc(NS(=O)(=O)c2ccc(N=[N+]([O-])c3ccc(S(=O)(=O)Nc4cc(C)on4)cc3)cc2)no1`, the TGI [1] is reported as over 100 µM, the TGI [2] is reported as over 100 µM and the TGI [3] is reported as over 100 µM. The TGI [4] was over 100 µM, the TGI [6] was over 100 µM and the TGI [19] was over 100 µM. For the same compound, the TGI [7] was over 100 µM, the TGI [8] was over 100 µM and the TGI [9] was over 100 µM. It also gave a TGI [10] of over 100 µM, a TGI [11] of over 100 µM and a TGI [12] of over 100 µM. For the same compound, the TGI [13] was over 100 µM, the TGI [18] was over 100 µM and the TGI [14] was over 100 µM. For the same compound, the TGI [16] was over 100 µM and the TGI [17] was over 100 µM.
With `C=C1C(=O)O[C@H]2C1C[C@H](O)[C@@]1(C)OC1CC[C@@]1(C)O[C@H]21` (stereo not given in full) the TGI [1] was 95.7 µM, the TGI [2] was 36.5 µM and the TGI [3] was 37.8 µM. The TGI [4] was 39.6 µM, the TGI [5] was 28.5 µM and the TGI [6] was 29.5 µM. For the same compound, the TGI [19] was 39.1 µM, the TGI [7] was 29.6 µM and the TGI [9] was 30.2 µM. It also gave a TGI [10] of over 100 µM, a TGI [11] of 46.9 µM and a TGI [12] of over 100 µM. It also gave a TGI [13] of 36.4 µM, a TGI [18] of 27.4 µM and a TGI [15] of 55.1 µM. The TGI [17] was 44 µM.
Work on `COc1cc(OC)c2c(=O)c3cccc(C)c3n(C)c2c1` yielded a TGI [1] of over 100 µM, a TGI [2] of over 100 µM and a TGI [3] of over 100 µM. The TGI [4] was over 100 µM, the TGI [5] was over 100 µM and the TGI [6] was over 100 µM. The TGI [19] was over 100 µM, the TGI [7] was over 100 µM and the TGI [8] was over 100 µM. It also gave a TGI [9] of over 100 µM, a TGI [10] of over 100 µM and a TGI [11] of over 100 µM. It also gave a TGI [12] of over 100 µM, a TGI [18] of over 100 µM and a TGI [14] of over 100 µM. The TGI [15] was over 100 µM, the TGI [16] was over 100 µM and the TGI [17] was over 100 µM.
In the case of `COC(=O)[C@@](NC(=O)OCc1ccccc1)([C@H](C)O)C(F)(F)F`, the TGI [1] is reported as over 100 µM, the TGI [2] is reported as over 100 µM and the TGI [3] is reported as over 100 µM. The TGI [4] was over 100 µM, the TGI [5] was over 100 µM and the TGI [19] was over 100 µM. For the same compound, the TGI [7] was over 100 µM, the TGI [8] was over 100 µM and the TGI [9] was over 100 µM. It also gave a TGI [10] of over 100 µM, a TGI [11] of over 100 µM and a TGI [12] of over 100 µM. It also gave a TGI [13] of over 100 µM, a TGI [18] of over 100 µM and a TGI [14] of over 100 µM. The TGI [15] was over 100 µM, the TGI [16] was over 100 µM and the TGI [17] was over 100 µM.
`C[C@@H]1CC[C@H]2[C@H](C)C(OC3O[C@@H]4O[C@@]5(C)CC[C@H]6[C@H](C)CC[C@@H]([C@@H]3C)[C@@]46O5)O[C@@H]3O[C@@]4(C)CC[C@@H]1[C@]32O4` (stereo not given in full) showed a TGI [1] of over 100 µM, a TGI [2] of over 100 µM and a TGI [3] of over 100 µM. The TGI [4] was over 100 µM, the TGI [5] was over 100 µM and the TGI [6] was over 100 µM. It also gave a TGI [19] of over 100 µM, a TGI [7] of over 100 µM and a TGI [8] of over 100 µM. It also gave a TGI [9] of over 100 µM, a TGI [10] of over 100 µM and a TGI [12] of over 100 µM. It also gave a TGI [13] of over 100 µM, a TGI [18] of over 100 µM and a TGI [14] of over 100 µM. For the same compound, the TGI [15] was over 100 µM and the TGI [16] was over 100 µM.
Work on `COc1cc(C2c3cc4c(cc3C(=O)C3CCC(=O)N32)OCO4)cc(OC)c1O` (stereo not given) yielded a TGI [3] of over 50 µM, a TGI [4] of over 50 µM and a TGI [6] of over 50 µM. The TGI [19] was over 50 µM, the TGI [7] was over 50 µM and the TGI [9] was over 50 µM. It also gave a TGI [10] of over 50 µM, a TGI [11] of over 50 µM and a TGI [12] of over 50 µM. The TGI [13] was over 50 µM, the TGI [14] was over 50 µM and the TGI [15] was over 50 µM. For the same compound, the TGI [16] was over 50 µM and the TGI [17] was over 50 µM.
With `CC(Cn1c2c(c3cc(O)ccc31)CCc1ccc(O)cc1-2)N(C)C` (stereo not given) the TGI [1] was 53.2 µM, the TGI [2] was 37.1 µM and the TGI [3] was 44.6 µM. It also gave a TGI [4] of 33.2 µM, a TGI [6] of 36.3 µM and a TGI [19] of 27.6 µM. The TGI [8] was 59.4 µM, the TGI [9] was over 100 µM and the TGI [11] was 53.2 µM. It also gave a TGI [12] of 77 µM, a TGI [18] of 30.8 µM and a TGI [14] of 30.1 µM. For the same compound, the TGI [15] was 29.9 µM, the TGI [16] was over 100 µM and the TGI [17] was 41.9 µM.
Work on `Cc1c(/C=N/NC(=S)N2CCCCC2)c(=O)n(-c2ccccc2)n1C` yielded a TGI [1] of over 100 µM, a TGI [2] of over 100 µM and a TGI [3] of over 100 µM. For the same compound, the TGI [4] was over 100 µM, the TGI [5] was over 100 µM and the TGI [6] was over 100 µM. The TGI [19] was over 100 µM, the TGI [8] was over 100 µM and the TGI [9] was over 100 µM. It also gave a TGI [10] of over 100 µM, a TGI [11] of 97.3 µM and a TGI [12] of over 100 µM. It also gave a TGI [18] of over 100 µM, a TGI [14] of over 100 µM and a TGI [15] of over 100 µM. The TGI [16] was 95 µM and the TGI [17] was over 100 µM.
Work on `O=c1[nH][nH]c(=O)c2c1ccc1oc3ccccc3c12` yielded a TGI [1] of over 100 µM, a TGI [2] of over 100 µM and a TGI [3] of over 100 µM. The TGI [4] was over 100 µM, the TGI [5] was over 100 µM and the TGI [6] was over 100 µM. The TGI [19] was over 100 µM, the TGI [7] was over 100 µM and the TGI [8] was over 100 µM. It also gave a TGI [9] of over 100 µM, a TGI [10] of over 100 µM and a TGI [11] of over 100 µM. For the same compound, the TGI [12] was over 100 µM, the TGI [13] was over 100 µM and the TGI [18] was over 100 µM. For the same compound, the TGI [14] was over 100 µM, the TGI [15] was over 100 µM and the TGI [16] was over 100 µM.
With `Cc1sc2nc3n(c(=O)c2c1C)N=CN(c1ccc(Cl)cc1)C3` the TGI [1] was over 100 µM, the TGI [2] was over 100 µM and the TGI [3] was over 100 µM. For the same compound, the TGI [4] was over 100 µM, the TGI [5] was over 100 µM and the TGI [19] was over 100 µM. The TGI [7] was over 100 µM, the TGI [8] was over 100 µM and the TGI [9] was over 100 µM. It also gave a TGI [10] of over 100 µM, a TGI [11] of over 100 µM and a TGI [12] of over 100 µM. The TGI [18] was over 100 µM, the TGI [14] was over 100 µM and the TGI [15] was over 100 µM. It also gave a TGI [17] of over 100 µM.
`CC(=O)/C(=C\I)c1ccccc1` gave a TGI [1] of 36.5 µM, a TGI [2] of 26.8 µM and a TGI [3] of 15.5 µM. It also gave a TGI [4] of 3.45 µM, a TGI [6] of 4.05 µM and a TGI [19] of 5.08 µM. The TGI [8] was 3.74 µM, the TGI [9] was 4.65 µM and the TGI [10] was 30 µM. For the same compound, the TGI [11] was 3.36 µM, the TGI [12] was 26.5 µM and the TGI [13] was 3.83 µM. It also gave a TGI [18] of 3.33 µM, a TGI [14] of 3.23 µM and a TGI [15] of 13.3 µM. The TGI [16] was 3.49 µM and the TGI [17] was 25 µM.
